tested on: human liver microsomes, metabolic stability half-life; assay: NCATS Human Liver Microsomal (HLM) Stability Profiling; conditions: higher = more stable; screened at 1 µM (by protocol)
Method in brief: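 Half-life derived from parent loss over 0–60 min (0, 5, 10, 15, 30, 60 min) at 37 °C. Incubations: 0.5 mg/mL microsomes, 1 µM test article, NADPH regeneration, pH 7.4 phosphate; quenched in acetonitrile containing albendazole, analysed by MS.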

| Structure (SMILES) | half-life [min] |
| --- | --- |
| C[C@H]1CN(CC[C@H](O)C2CCCCC2)CC[C@@]1(C)c1cccc(O)c1 | 6.75 |
| CN(C(=O)C(c1ccccc1)c1ccccc1)[C@H](CN1CC[C@H](O)C1)c1ccccc1 | 9.29 |
| Cc1nc(N)nc(N)c1-c1ccc(Cl)c(Cl)c1 | > 120 |
| CCCC(Nc1nc(-c2ccc(NC(=O)NCC)c(OC)c2)ncc1C)c1cccnc1 (stereo unspecified) | 30.5 |
| CCc1cccc(CC)c1NC(=O)N1Cc2[nH]nc(NC(=O)c3ccc(N4CCN(C)CC4)cc3)c2C1 | > 120 |
| CCOc1ccc(NC(=O)N2CCN(c3ccc(Cl)c(Cl)c3)CC2)cc1 | > 120 |
| CNCC[C@@H](Oc1ccccc1C)c1ccccc1 | 23.9 |
| Cn1c(=O)cc(N2CCCC(N)C2)n(Cc2ccccc2C#N)c1=O (stereo unspecified) | > 120 |
| CN(C(=O)c1ccc(F)cc1C(F)(F)F)C1CCN(c2nnc(-c3ccnn3C)c3ccccc23)CC1 | 30.3 |
| COc1cc(C(=O)OC(COCCC(C)C)CN2CCOCC2)cc(OC)c1OC (stereo unspecified) | 2.43 |
| COc1ccc(NC(=O)Cn2cc(C(=O)c3cccs3)c3ccccc32)cc1 | 16.6 |
| CC(=O)OCC(=O)[C@@]12OC(C)(C)O[C@@H]1C[C@H]1[C@@H]3C[C@H](F)C4=CC(=O)C=C[C@]4(C)[C@@]3(F)[C@@H](O)C[C@@]12C | 44.3 |
| O=C(O)c1cn(C2CC2)c2cc(Cl)c(F)cc2c1=O | > 120 |
| CCOC(=O)c1ccc(Nc2nc3nonc3nc2Nc2cccc(C)c2C)cc1 | 10.7 |
| NC1=NCC2c3ccccc3Cc3ccccc3N12 (stereo unspecified) | > 120 |
| CN1C2CCC(C)(C)C1CC(OC(=O)C(O)(c1cccs1)c1cccs1)C2 (stereo unspecified) | 26.5 |
| CCCOc1cc(N)ccc1C(=O)OCCN(CC)CC | 70.3 |
| Cc1ccc(NC(=O)c2cccc(N(C)C)c2)cc1NC(=O)c1ccc(O)cc1 | 18.9 |
| C1N2CN3CN1CN(C2)C3 | 30.5 |
| Cc1ncc(Cl)cc1NCc1ccc(C(=O)NC(CC2CCCC2)C(=O)NC2CC2)s1 (stereo unspecified) | 6.13 |
| CCCc1ccc(C(=O)O)cc1 | > 120 |

| Structure (SMILES) | half-life [min] |
| --- | --- |
| CCNC1(C(N)=O)CN(c2nc(C)nc3c(-c4ccc(Cl)cc4)c(-c4ccccc4Cl)nn23)C1 | 20.5 |
| Cc1c(CN2CCN(C(=O)C(C)C)CC2)sc2c(N3CCOCC3)nc(-c3cnc(N)nc3)nc12 | > 120 |
| CCOc1cc(CNC(=O)c2ccc(C)c(NC(=O)c3nsc4ccccc34)c2)ccc1OC | 7.12 |
| CN1CCN(C(=O)c2cc(-c3cccnc3)nc3c2cnn3C)CC1 | > 120 |
| CCC(CC)Nc1nc(C)c(-c2ccc(OC(F)(F)F)cc2OC)nc1OC | 20.5 |
| CC(Cc1cccc(C(F)(F)F)c1)NCCOC(=O)c1ccccc1 (stereo unspecified) | 0.84 |
| COC(=O)/C=C(\C)OP(=O)(OC)OC | 19.9 |
| [O-][n+]1cccc(CO)c1 | > 120 |
| COc1cc(NC(=O)Nc2cccc(CNC(=O)O[C@H]3CCOC3)c2)ccc1-c1cnco1 | 27.7 |
| CC(C)(N)c1ncc(-c2ccc(OC(F)(F)F)cc2)[nH]1 | > 120 |
| Cc1ccc2c(n1)Oc1ccc(C(C)C(=O)OCC(=O)N(C)C)cc1C2 (stereo unspecified) | 11.1 |
| COc1ccccc1Cn1cc(C(=O)c2ccc(Cl)cc2)c(=O)c2cc3c(cc21)OCCO3 | 40.8 |
| CC(C)(C)c1ccc(C(=O)Nc2cc(Cl)c(Br)cc2C(=O)O)cc1 | 6.17 |
| COc1ccc(C(=O)NC(c2ccccc2Cl)c2cc(Cl)c3cccnc3c2O)cc1 (stereo unspecified) | 37.1 |
| CC1=NOC2(CCN(Cc3ccc(C#N)cc3)C2)C1 (stereo unspecified) | > 120 |
| CS(=O)(=O)c1ccc([C@@H](O)[C@@H](CO)NC(=O)C(Cl)Cl)cc1 | > 120 |
| O=c1[nH]c2cccc(N3CCN(Cc4ccc(-c5ccccc5)cc4)CC3)c2o1 | 31.7 |
| COc1ccc(C(=O)N2CCCC2=O)cc1 | > 120 |
| CN(C)c1cccc(Oc2cnc(Nc3cccc(O)c3)nc2)c1 | 21.9 |
| COP(=S)(OC)SCn1nnc2ccccc2c1=O | 8.16 |
| CCOc1ccccc1NC(=O)CSc1nc2ccccc2c2nc(CCn3cncc3C)nn12 | 5.36 |

| Structure (SMILES) | half-life [min] |
| --- | --- |
| Cc1cncn1CCc1nc2c3ccccc3nc(SCC(=O)Nc3cccc(Cl)c3)n2n1 | 11.6 |
| CNc1cccc(CCOc2ccc3c(c2)CN(CC(F)(F)F)C(=O)[C@H](CC(=O)O)C3)n1 | > 120 |
| CCN1CCN(C(=O)Cc2ccc(Nc3ncc(F)c(Nc4ccc(C(=O)Nc5ccccc5Cl)cc4)n3)cc2)CC1 | 4.23 |
| Nc1nc2ccccc2n1Cc1ccc(F)cc1 | > 120 |
| CCOc1cc(=O)n2c(c1C(=O)Nc1ccc(C#N)cc1)CCCC2 | > 120 |
| CC(Cc1ccc2c(c1)OCO2)NCC(O)c1ccc(O)c(O)c1 (stereo unspecified) | 18.6 |
| Nc1c(Br)cc(Br)cc1CNC1CCC(O)CC1 (stereo unspecified) | 110 |
| CC(C)(C)C(=O)OCOP(=O)(COCCn1cnc2c(N)ncnc21)OCOC(=O)C(C)(C)C | 3.13 |
| CCCCCOC(=O)Nc1nc(=O)n([C@@H]2O[C@H](C)[C@@H](O)[C@H]2O)cc1F | > 120 |
| COP(=O)(OC)Oc1ccc([N+](=O)[O-])cc1 | 13.3 |
| CCOC(=O)c1cc(C#N)c(N2CCC(C(=O)NS(=O)(=O)Cc3ccccc3)CC2)nc1C | 43.7 |
| COc1ccc(Cn2c(SCc3ccc(C(=O)NC4CCCC4)cc3)nc3ccncc32)cc1 | 14.5 |
| CC[C@]1(C2=NCCN2)Cc2ccccc2O1 | > 120 |
| CNC(=O)c1cnn(-c2nc(N)c3ncn([C@@H]4O[C@H](CO)[C@@H](O)[C@H]4O)c3n2)c1 | > 120 |
| NC(=O)c1cnc(N[C@@H]2CCCC[C@H]2N)nc1Nc1cccc(-n2nccn2)c1 | 90.7 |
| COc1ccc(OCC(=O)Nc2cc(-c3nc4ccccc4s3)ccc2C)cc1 | 3.38 |
| OCCCNc1cc(-c2ccnc(Nc3cccc(Cl)c3)n2)ccn1 | 24.5 |
| CS(=O)(=O)c1cccc(CNc2nc(Nc3ccc4c(c3)CCC(=O)N4)ncc2C(F)(F)F)c1 | > 120 |
| Cc1ccc2c(c1)c1c(n2CCc2ccc(C)nc2)CCN(C)C1 | 8.67 |
| CCC(=O)c1ccc2c(c1)N(CCCN(C)C)c1ccccc1S2 | 15.4 |
| Cc1nn(C)c2c1C(c1ccc(C(F)(F)F)cc1)C(C#N)=C(N)O2 (stereo unspecified) | 11 |

| Structure (SMILES) | half-life [min] |
| --- | --- |
| COc1cc2c(cc1OC)CN(C(=O)[C@@H](NCc1ccncc1)C(C)(C)C)CC2 | 2.24 |
| COc1ccc(Nc2nnc(-c3ccc(C)c(S(=O)(=O)NCc4nc5ccccc5[nH]4)c3)c3ccccc23)cc1 | 5.8 |
| NC(N)=Nc1nc(CSCC/C(N)=N/S(N)(=O)=O)cs1 | > 120 |
| CN(C)Cc1c(C(=O)NCCOc2ccc(C(=O)NO)cc2)oc2ccccc12 | > 120 |
| CC1COC2(c3ccccc3Cl)c3cc(Cl)ccc3NC(=O)CN12 (stereo unspecified) | 9.03 |
| CC(C)c1ccc(-n2ncc3c(=O)n(CC(=O)Nc4cc(F)ccc4Cl)cnc32)cc1 | 23.9 |
| N#Cc1cc(-c2n[nH]c(-c3ccncc3)n2)ccn1 | 90.6 |
| CCN(CC)Cc1ccc(C(=O)N(CCc2ccccc2OC)[C@@H]2CCNC2)cc1 | > 120 |
| CCN(CC)C(=O)C1CN2CCc3cc(OC)c(OC)cc3C2CC1OC(C)=O (stereo unspecified) | > 120 |
| O=C(CCNc1c(-c2cccc(F)c2)nc2cnccn12)N1CCCC1 | 4.93 |
| Cc1ccc(NC(=O)Nc2cccs2)c(C)c1 | 23.8 |
| COc1cccc(C(=O)Nc2nc(-c3nnn(-c4ccccc4C(F)(F)F)c3C)ns2)c1 | > 120 |
| COc1cc(O)cc(O)c1 | > 120 |
| Cc1ccc(C(=O)Oc2ccc(C(O)CNC(C)(C)C)cc2OC(=O)c2ccc(C)cc2)cc1 (stereo unspecified) | 2.27 |
| COc1ccc(C2c3c(oc4ccc(Cl)cc4c3=O)C(=O)N2CCCN(C)C)cc1OC (stereo unspecified) | > 120 |
| C[C@@H](N)[C@@H](O)c1ccccc1 | 92.4 |
| CC(=O)N1CCN([C@H]2CCN(C(=O)N(C)[C@H](C)c3cc(C(F)(F)F)cc(C(F)(F)F)c3)[C@@H](c3ccc(F)cc3C)C2)CC1 | 12.8 |
| COc1ccc(C2Sc3ccccc3N(CCN(C)C)C(=O)C2OC(C)=O)cc1 (stereo unspecified) | 68.1 |

From PubChem BioAssay AID1963597 (National Center for Advancing Translational Sciences (NCATS), 2024)
